IC50 data for three molecules are collected here from patent US7157430B2, “(Substituted)acyl dipeptidyl inhibitors of the ICE/CED-3 family of cysteine proteases” (Idun Pharmaceuticals, Inc., priority 1998, dated 2007).

Common to all, as to assay type: biochemical
The target in one test is T1, mICE (Mus musculus, UniProt P29452).
T1 sequence (P29452 123-296 limits assumed): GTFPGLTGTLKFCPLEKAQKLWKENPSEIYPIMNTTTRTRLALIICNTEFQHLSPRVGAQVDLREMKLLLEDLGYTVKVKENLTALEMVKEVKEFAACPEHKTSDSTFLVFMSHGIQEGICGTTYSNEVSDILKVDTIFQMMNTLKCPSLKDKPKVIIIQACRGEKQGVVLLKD
T1 sequence (P29452 315-402 limits assumed): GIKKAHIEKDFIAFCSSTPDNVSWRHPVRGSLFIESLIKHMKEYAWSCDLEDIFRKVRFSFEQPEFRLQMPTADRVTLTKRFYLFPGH
Briefly: Fluorescence enzyme assay, IC50 determination, ICE. The conditions noted are these: recombinant enzyme, Ac-YVAD-AMC substrate, 30 min preincubation, room temperature; read-out: mICE IC50. The essentials: (§1)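 Recombinant enzyme preincubated with compound 30 min at room temperature in 25 mM HEPES, 1 mM EDTA, 0.1% CHAPS, 10% sucrose, pH 7.5, 2 mM DTT. Substrate Ac-YVAD-AMC for ICE, Ac-DEVD-AMC for Mch2/Mch3/Mch5. AMC fluorescence (ex 360/em 460 nm) followed 1 h; IC50 from duplicate means vs inhibitor concentration.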

Another test deals with T2, MCH-2 (Homo sapiens, UniProt P55212).
T2 sequence (P55212 24-179 limits assumed): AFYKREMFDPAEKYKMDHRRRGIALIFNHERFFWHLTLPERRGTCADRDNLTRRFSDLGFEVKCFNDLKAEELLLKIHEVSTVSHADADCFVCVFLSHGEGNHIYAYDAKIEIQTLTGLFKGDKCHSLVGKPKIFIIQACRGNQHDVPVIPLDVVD
T2 sequence (P55212 194-293 limits assumed): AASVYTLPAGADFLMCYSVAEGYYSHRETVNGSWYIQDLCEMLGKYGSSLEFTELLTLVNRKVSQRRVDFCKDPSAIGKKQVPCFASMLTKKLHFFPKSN
Briefly: Fluorescence enzyme assay, IC50 determination, Mch2. The following applies: Ac-DEVD-AMC substrate, 30 min preincubation, room temperature; read-out: MCH-2 IC50. The gist of the method: as §1

The target of a further test is T3, CPP32 (Homo sapiens, UniProt P42574).
T3 sequence (P42574 29-175 limits assumed): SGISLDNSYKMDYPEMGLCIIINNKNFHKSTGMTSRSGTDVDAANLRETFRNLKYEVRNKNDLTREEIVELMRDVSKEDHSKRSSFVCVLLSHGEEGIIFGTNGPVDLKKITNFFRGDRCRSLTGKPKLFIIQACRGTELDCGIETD
T3 sequence (P42574 176-277 limits assumed): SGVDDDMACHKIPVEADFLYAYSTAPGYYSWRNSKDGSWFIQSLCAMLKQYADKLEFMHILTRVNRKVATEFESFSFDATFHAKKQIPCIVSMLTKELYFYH
Briefly: Fluorescence enzyme assay, IC50 determination, CPP32. The following applies: recombinant enzyme, Ac-DEVD-AMC substrate, 30 min preincubation, room temperature; read-out: CPP32 IC50.

The next test addresses T4, MCH-3 (Homo sapiens, UniProt P55210).
T4 sequence (P55210 24-198 limits assumed): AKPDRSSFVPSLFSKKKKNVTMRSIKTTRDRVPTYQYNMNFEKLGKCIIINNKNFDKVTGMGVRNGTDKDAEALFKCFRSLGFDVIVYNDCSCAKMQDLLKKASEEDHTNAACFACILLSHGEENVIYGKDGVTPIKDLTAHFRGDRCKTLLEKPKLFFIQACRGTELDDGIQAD
T4 sequence (P55210 207-303 limits assumed): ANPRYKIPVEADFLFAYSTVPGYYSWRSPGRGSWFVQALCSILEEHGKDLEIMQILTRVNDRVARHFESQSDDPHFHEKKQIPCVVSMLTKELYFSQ
Description: Fluorescence enzyme assay, IC50 determination, Mch3. The conditions noted are these: Ac-DEVD-AMC substrate, 30 min preincubation, room temperature; read-out: MCH-3 IC50. The gist of the method: as §1

The target of the next test is MCH-5 (Homo sapiens, UniProt Q14790). Description: Fluorescence enzyme assay, IC50 determination, Mch5. The following applies: Ac-DEVD-AMC substrate, 30 min preincubation, room temperature; read-out: MCH-5 IC50. The gist of the method:
as §1

Where a SMILES comes first, the peptide text is derived from it. The star is where a group is joined. Cbz = O=C(OCc1ccccc1)*

Chain of MCH-5 (Q14790 217-374 limits assumed, species assumed): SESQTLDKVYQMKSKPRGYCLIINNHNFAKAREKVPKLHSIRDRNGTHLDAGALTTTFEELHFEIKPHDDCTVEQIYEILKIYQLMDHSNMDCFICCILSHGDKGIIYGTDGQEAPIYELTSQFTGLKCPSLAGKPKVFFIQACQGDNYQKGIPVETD
Chain of MCH-5 (Q14790 385-479 limits assumed, species assumed): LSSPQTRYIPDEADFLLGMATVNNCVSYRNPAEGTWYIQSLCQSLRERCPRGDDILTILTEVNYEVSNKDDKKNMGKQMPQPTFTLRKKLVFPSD

For `O=C[C@H](CC(=O)O)NC(=O)[C@@H]1Cc2ccccc2N1C(=O)COc1cccc2ccccc12` [Example 186, (2′S,3S)-3-[N-((1-Naphthyloxy)Acetyl)Indoline-2′-Carbonyl]Amino-4-Oxobutanoic Acid], the IC50 (in general, the midpoint of a concentration-inhibition curve) is 298 nM at mICE; greater than 50000 nM at MCH-2; 25300 nM on CPP32; greater than 50000 nM on MCH-3; 39800 nM on MCH-5.

Turning to `CC(C)[C@H](NC(=O)COc1cccc2c(NS(=O)(=O)C(F)(F)F)cccc12)C(=O)N[C@H](C=O)CC(=O)O` [Example 188, (3S)-3-[N-((5′-Trifluoromethylsulfonylamino-1′-Naphthyloxy)Acetyl)Valinyl]Amino-4-Oxobutanoic Acid], the IC50 at mICE turned out to be 127 nM; at MCH-2 it was 1010 nM; at CPP32 it was 207 nM; at MCH-3 it was 11000 nM; on MCH-5 it was 615 nM.

In the case of `CC(C)[C@H](NC(=O)OCc1ccccc1)C(=O)N[C@@H](C)C(=O)N[C@H](C=O)CC(=O)O` [reference, Cbz-ValAlaAsp-H, reference compound] (Cbz-Val-Ala-Asp-aldehyde), the IC50 at mICE is 64 nM; on MCH-2 it was greater than 10000 nM; at CPP32 it was 47000 nM; at MCH-3, greater than 10000 nM; on MCH-5, 2960 nM.
